Source: patent US20100010087A1, “Methods for Inducing Stem Cell Migration and Specialization with EC-18” (priority 2008, published 2010)

Tests used:
[1] = system: SDF-1 (Cxcl12) mRNA; assay: SDF-1 mRNA expression in lung and liver of mice after CLP (RT-PCR); format: in vivo; details: 50 mg/kg
Procedure: (§1) Specifically, donor transgenic GFP (C57BL/6) mice are given 5-FU (150 mg/kg) to kill mature cells. Bone marrow is harvested. C57BL/6 congenic recipient mice are exposed to lethal doses of whole-body radiation (10Gy Cesium-137 at 1.0 Gy/min) and then undergo bone marrow transplant. Engraftment of GFP-BMSC is confirmed after five weeks in select sacrificed mice. Surviving mice are GFP-BMSC chimeras available for investigation. These GFP-BMSC mice then undergo CLP. Specifically, the mice are anesthetized and undergo laparotomy. The sham group undergo laparotomy only. The non-sham group has the cecum ligated and punctured (size and number of punctures may vary depending on the desired severity of injury). Mice are sacrificed at six, twelve and 24 hours. […] Serum is analyzed for levels of cytokines (TNF-α, IL-1, IL-2, IL-4, IL-6, IL-10, and IFN-γ) and chemokines (SDF-1 and SCF). […]
(§2) Additionally, four groups of 20 mice: sham group underwent celiotomy but not CLP; control group underwent CLP and administration of PBS; simultaneous treatment group (STG) had administration of 50 mg/kg MADG PO. […] Serum and tissue levels of pro- and anti-inflammatory cytokines were measured. Serum levels of chemokines stromal cell-derived factor (SDF-1) and stem cell factor (SCF) were measured to ascertain if effects of MADG involve stimulation of bone marrow stromal and stem cells. […]

[2] = system: SCF (Kit) mRNA; assay: SCF mRNA expression in lung and liver of mice after CLP (RT-PCR); format: in vivo; details: 50 mg/kg
Procedure: as §1, §2

CCCCC/C=C\C/C=C\CCCCCCCC(=O)OC(COC(C)=O)COC(=O)CCCCCCCCCCCCCCC (racemic) [EC-18, 1-palmitoyl-2-linoleoyl-3-acetyl-rac-glycerol]
increased early expression: Cxcl2 (SDF-1) mRNA expression in the liver ([1]; liver, compared to controls (FIG. 5A)) | Cxcl2 (SDF-1) mRNA expression in the lung ([1]; lung, compared to controls (FIG. 4A)) | kit (SCF) mRNA expression in the liver ([2]; liver, compared to controls (FIG. 5B)) | kit (SCF) mRNA expression in the lung ([2]; lung, compared to controls (FIG. 4B))
